Measurements reported in patent US10519177B2, “Heterocyclic compounds and uses thereof” (Plexxikon Inc., priority 2013, dated 2019).
Where two headings read alike, the source gives them in different places.

Assays:
[1] = molecular target: BRD4-BD1 (44-164) (Homo sapiens (Human), UniProt O60885); experiment: Alphascreen binding assay BRD4-BD1; settings: BRD4(1) H4; read-out: Biochemical activity (IC50 μM) BRD4(1) H4
How it was run: (§1)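 First, compound was preincubated 1 h at room temperature with the His-tagged BRD4 protein (BD1 44-164 or tandem BD12 1-477) and acetylated H4 peptide. Next, donor and acceptor beads were added at 7.5 μg/ml final. After 30 min, AlphaScreen emission was recorded.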

[2] = molecular target: BRD4-BD12 (1-477) (Homo sapiens (Human), UniProt O60885); experiment: Alphascreen binding assay BRD4-BD12; settings: BRD4(1 2) H4; read-out: Biochemical activity (IC50 μM) BRD4(1 2) H4
How it was run: as §1

[3] = test system: MV-4-11 cells; experiment: Oncology cell growth assay MV-4-11 (CellTiter Glo); format: cell-based
How it was run: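 MV-4-11 AML cells (MLL-AF4), 3000 per well, exposed to 8-point 1:3 compound titration from 10 μM top concentration (0.2% DMSO) for 72 h. Viability by CellTiter Glo luminescence, normalized to DMSO controls; pIC50 from four-parameter curve fit.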

[4] = test system: bromodomain; experiment: at least one of the bromodomain cell assays of Example 57; format: cell-based; settings: at least one of the bromodomain cell assays described in Example 57; read-out: IC50 in at least one of the bromodomain cell assays
[5] = Homo sapiens, MV4-11, 72 h; read-out: Cell activity (IC50 μM) MV-4-11 3d-Growth

## Cc1noc(C)c1-c1cnc2c(I)cn(Cc3ccccc3)c2c1 [P-0318, 4-(1-benzyl-3-iodo-pyrrolo[3,2-b]pyridin-6-yl)-3,5-dimethyl-isoxazole]
[1]
  IC50: < 1 µM
[2]
  IC50: < 1 µM
[3]; [5]
  IC50: < 1 µM
[4]
  IC50: < 10 µM

## Cc1noc(C)c1-c1cnc2c(-c3cnn(C(F)F)c3)cn(Cc3ccccc3)c2c1 [P-0326, 4-[1-benzyl-3-[1-(difluoromethyl)pyrazol-4-yl]pyrrolo[3,2-b]pyridin-6-yl]-3,5-dimethyl-isoxazole]
[1]
  IC50: < 1 µM
[2]
  IC50: < 1 µM
[3]; [5]
  IC50: < 1 µM
[4]
  IC50: < 10 µM

## Cc1noc(C)c1-c1cnc2c(-c3ccc(=O)n(C)c3)cn(C(C)c3ccccc3)c2c1 (centres unmarked) [P-0274, 5-[6-(3,5-dimethylisoxazol-4-yl)-1-(1-phenylethyl)pyrrolo[3,2-b]pyridin-3-yl]-1-methyl-pyridin-2-one]
[1]
  IC50: < 1 µM
[2]
  IC50: < 1 µM
[3]; [5]
  IC50: < 1 µM
[4]
  IC50: < 10 µM

## 1-(benzenesulfonyl)-5-(3,5-dimethylisoxazol-4-yl)pyrrolo[2,3-b]pyridine-3-carboxylic acid [P-0169]
[1]
  IC50: < 1 µM
[4]
  IC50: < 10 µM

## Cc1noc(C)c1-c1cnc2c(-c3cnn(CC(F)(F)F)c3)cn(C(C)c3ccccc3)c2c1 (centres unmarked) [P-0202, 3,5-dimethyl-4-[1-(1-phenyl-ethyl)-3-[1-(2,2,2-trifluoro-ethyl)pyrazol-4-yl]pyrrolo[3,2-b]pyridin-6-yl]isoxazole]
[1]
  IC50: < 1 µM
[3]; [5]
  IC50: < 1 µM
[4]
  IC50: < 10 µM

## Cc1noc(C)c1-c1cnc2c(c1)c(CC1CCN(C(=O)Nc3ccccc3)CC1)cn2C [P-0114, 4-[[5-(3,5-dimethylisoxazol-4-yl)-1-methyl-pyrrolo[2,3-b]pyridin-3-yl]methyl]-N-phenyl-piperidine-1-carboxamide]
[1]
  IC50: < 1 µM
[3]; [5]
  IC50: < 1 µM
[4]
  IC50: < 10 µM

## Cc1n[nH]cc1-c1cnc2ccn(CC3CCC(F)(F)CC3)c2c1 [P-0292, l-[(4,4-difluorocyclohexyl)methyl]-6-(3-methyl-1H-pyrazol-4-yl)pyrrolo[3,2-b]pyridine]
[1]
  IC50: 10 to 200 µM
[3]; [5]
  IC50: 1 to 10 µM
[4]
  IC50: < 10 µM

## CCS(=O)(=O)N1CCC(Cc2cn(C)c3ncc(-c4c(C)noc4C)cc23)CC1 [P-0116, 4-[3-[(1-ethylsulfonyl-4-piperidyl)methyl]-1-methyl-pyrrolo[2,3-b]pyridin-5-yl]-3,5-dimethyl-isoxazole]
[1]
  IC50: < 1 µM
[3]; [5]
  IC50: 1 to 10 µM
[4]
  IC50: < 10 µM

## Cc1noc(C)c1-c1cnc2c(-c3cnn(C)c3)cn(C(C)c3ccccn3)c2c1 (centres unmarked) [P-0217, 3,5-dimethyl-4-[3-(1-methylpyrazol-4-yl)-1-[1-(2-pyridyl)ethyl]pyrrolo[3,2-b]pyridin-6-yl]isoxazole]
[1]
  IC50: < 1 µM
[3]; [5]
  IC50: < 1 µM
[4]
  IC50: < 10 µM

## Cc1noc(C)c1-c1cnc2c(c1)c(C(O)C1CCC(F)(F)CC1)cn2C (centres unmarked) [P-0101, (4,4-difluorocyclohexyl)-[5-(3,5-dimethylisoxazol-4-yl)-1-methyl-pyrrolo[2,3-b]pyridin-3-yl]methanol]
[1]
  IC50: < 1 µM
[3]; Homo sapiens, MV4-11, 72 h, read-out: Cell activity (IC50 μM) MV-4-11 3d-Growth
  IC50: < 1 µM

## Cc1noc(C)c1-c1cnc2c(c1)c(CC1CCN(S(=O)(=O)C3CCCC3)CC1)cn2C [P-0119, 4-[3-[(1-cyclopentylsulfonyl-4-piperidyl)methyl]-1-methyl-pyrrolo[2,3-b]pyridin-5-yl]-3,5-dimethyl-isoxazole]
[1]
  IC50: 1 to 10 µM
[3]; [5]
  IC50: 1 to 10 µM
[4]
  IC50: < 10 µM

## Cc1noc(C)c1-c1cnc2c(-c3cn[nH]c3)cn(C(C)c3ccccc3)c2c1 (centres unmarked) [P-0199, 3,5-dimethyl-4-[1-(1-phenyl-ethyl)-3-(1H-pyrazol-4-yl)pyrrolo[3,2-b]pyridin-6-yl]isoxazole]
[1]
  IC50: < 1 µM

## CCc1[nH]c2ncc(-c3c(C)noc3C)cc2c1CC1CCC(F)(F)CC1 [P-0051, 4-[3-[(4,4-difluoro-cyclohexyl)methyl]-2-ethyl-1H-pyrrolo[2,3-b]pyridin-5-yl]-3,5-dimethyl-isoxazole]
[1]
  IC50: < 1 µM

## Cc1noc(C)c1-c1cnc2c(-c3cnn(C)c3)cn(Cc3ccccc3Cl)c2c1 [P-0193, 4-[1-[(2-chlorophenyl)methyl]-3-(1-methylpyrazol-4-yl)pyrrolo[3,2-b]pyridin-6-yl]-3,5-dimethyl-isoxazole]
[1]
  IC50: < 1 µM

## Cc1nc(Cn2cc(-c3cnn(C)c3)c3ncc(-c4c(C)noc4C)cc32)cs1 [P-0170, 3,5-dimethyl-4-[3-(1-methylpyrazol-4-yl)-1-[(2-methylthiazol-4-yl)methyl]pyrrolo[3,2-b]pyridin-6-yl]isoxazole]
[1]
  IC50: < 1 µM

## Cc1noc(C)c1-c1cnc2c(-c3cnn(C)c3)cn(CC3CC(F)(F)C3)c2c1 [P-0213, 4-[1-[(3,3-difluorocyclobutyl)methyl]-3-(1-methylpyrazol-4-yl)pyrrolo[3,2-b]pyridin-6-yl]-3,5-dimethyl-isoxazole]
[1]
  IC50: < 1 µM

## Cc1noc(C)c1-c1cnc2[nH]cc(C(O)c3ccc(OCC(F)(F)F)nc3)c2c1 (centres unmarked) [P-0012, [5-(3,5-dimethylisoxazol-4-yl)-1H-pyrrolo[2,3-b]pyridin-3-yl]-[6-(2,2,2-trifluoroethoxy)-3-pyridyl]methanol]
[1]
  IC50: < 1 µM

## CCC(c1cn(C)c2ncc(-c3c(C)noc3C)cc12)C1CCC(F)(F)CC1 (centres unmarked) [P-0118, 4-[3-[1-(4,4-difluorocyclohexyl)propyl]-1-methyl-pyrrolo[2,3-b]pyridin-5-yl]-3,5-dimethyl-isoxazole]
[1]
  IC50: < 1 µM

## COC(c1ccccc1Cl)c1c[nH]c2ncc(-c3c(C)noc3C)cc12 (centres unmarked) [P-0020, 4-[3-[(2-chlorophenyl)-methoxy-methyl]-1H-pyrrolo[2,3-b]pyridin-5-yl]-3,5-dimethyl-isoxazole]
[1]
  IC50: < 1 µM

## CCc1[nH]c2ncc(-c3c(C)noc3C)cc2c1C(O)C1CCC(F)(F)CC1 (centres unmarked) [P-0044, (4,4-difluorocyclohexyl)-[5-(3,5-dimethylisoxazol-4-yl)-2-ethyl-1H-pyrrolo[2,3-b]pyridin-3-yl]methanol]
[1]
  IC50: < 1 µM

## Cc1noc(C)c1-c1cnc2c(-c3cnn(C)c3)cn(Cc3ccccc3OC(F)(F)F)c2c1 [P-0194, 3,5-dimethyl-4-[3-(1-methylpyrazol-4-yl)-1-[[2-(trifluoromethoxy)phenyl]methyl]pyrrolo[3,2-b]pyridin-6-yl]isoxazole]
[1]
  IC50: < 1 µM

## Cc1noc(C)c1-c1cnc2[nH]cc(C(=O)C3CCC(F)(F)CC3)c2c1 [P-0031, (4,4-difluorocyclohexyl)-[5-(3,5-dimethylisoxazol-4-yl)-1H-pyrrolo[2,3-b]pyridin-3-yl]methanone]
[1]
  IC50: < 1 µM

## Cc1noc(C)c1-c1cnc2[nH]cc(C(O)C3CCC(F)(F)CC3)c2c1 (centres unmarked) [P-0030, (4,4-difluorocyclohexyl)-[5-(3,5-dimethylisoxazol-4-yl)-1H-pyrrolo[2,3-b]pyridin-3-yl]methanol]
[1]
  IC50: < 1 µM

## Cc1noc(C)c1-c1cnc2ccn(S(=O)(=O)c3ccccc3)c2c1 [P-0038, 4-[1-(benzenesulfonyl)pyrrolo[3,2-b]pyridin-6-yl]-3,5-dimethyl-isoxazole]
[1]
  IC50: < 1 µM

## Cc1noc(C)c1-c1cnc2c(-c3cnn(C4CCOC4)c3)cn(S(=O)(=O)c3ccccc3)c2c1 (centres unmarked) [P-0148, 4-[1-(benzenesulfonyl)-3-(1-tetrahydrofuran-3-ylpyrazol-4-yl)pyrrolo[3,2-b]pyridin-6-yl]-3,5-dimethyl-isoxazole]
[1]
  IC50: < 1 µM

## [6-(3,5-dimethylisoxazol-4-yl)-1H-pyrrolo[3,2-b]pyridin-3-yl]-tetrahydrothiopyran-4-yl-methanone [P-0091]
[1]
  IC50: < 1 µM
[3]; MV-4-11 3d-Growth; read-out: Cell activity (IC50 μM) MV-4-11 3d-Growth
  IC50: 1 to 10 µM
[4]
  IC50: < 10 µM

## Cc1noc(C)c1-c1cnc2c(-c3cnn(C(F)F)c3)cn(Cc3ccccc3F)c2c1 [P-0176, 4-[3-[1-(difluoromethyl)pyrazol-4-yl]-1-[(2-fluorophenyl)methyl]pyrrolo[3,2-b]pyridin-6-yl]-3,5-dimethyl-isoxazole]
[1]
  IC50: < 1 µM

## Cc1noc(C)c1-c1cnc2c(c1)c(CC1CCN(C(=O)C(F)(F)F)CC1)cn2C [P-0106, 1-[4-[[5-(3,5-dimethylisoxazol-4-yl)-1-methyl-pyrrolo[2,3-b]pyridin-3-yl]methyl]-1-piperidyl]-2,2,2-trifluoro-ethanone]
[1]
  IC50: < 1 µM

## COC(c1cn(S(=O)(=O)C2CCCCC2)c2cc(-c3c(C)noc3C)cnc12)C1CC1 (centres unmarked) [P-0071, 4-[1-cyclohexyl-sulfonyl-3-[cyclopropyl(methoxy)methyl]pyrrolo[3,2-b]pyridin-6-yl]-3,5-dimethyl-isoxazole]
[1]
  IC50: < 1 µM

## Cc1noc(C)c1-c1cnc2[nH]c(C)c(Cc3cccnc3)c2c1 [P-0005, 3,5-dimethyl-4-[2-methyl-3-(3-pyridylmethyl)-1H-pyrrolo[2,3-b]pyridin-5-yl]isoxazole]
[1]
  IC50: < 1 µM

## CCc1[nH]c2ncc(-c3c(C)noc3C)cc2c1C(O)c1cccc(OC(F)(F)F)c1 (centres unmarked) [P-0043, [5-(3,5-dimethylisoxazol-4-yl)-2-ethyl-1H-pyrrolo[2,3-b]pyridin-3-yl]-[3-(trifluoromethoxy)phenyl]methanol]
[1]
  IC50: < 1 µM
